The record followed here is patent US7534871B2, “Preparation and use of carbohydrate-based bicyclic ring structures with antimicrobial and cytostatic activity” (Kemin Pharma B.V.B.A., priority 2004, dated 2009).

SMILES strings stand for the structures. Values after ≈ are worked out from the molar mass of the structure shown. Where only a bound is given, the exact number is not on record here.

In one data set the test system is HSV-2 (G). In words: Anti-viral activity: HSV-2-induced cytopathicity in human embryo fibroblast E6SM cell cultures. The class given is cell-based, herpes simplex virus (HSV). The following applies: Human alphaherpesvirus 2, 50%.
Turning to `CO[C@@H]1[C@@H](OC)[C@H](Cc2ccccc2)O[C@@H]2CO[C@@H](c3ccccc3)O[C@@H]12` [KPE00001019], the EC50 is greater than 80 mg/L.
In turn, `CO[C@@H]1[C@@H](OC)[C@H](Cc2ccccc2)O[C@@H]2COC(=O)CC/C=C/CCC(=O)O[C@@H]12` [KPE00001022] displayed an EC50 of 80 mg/L (≈ 191 µM).
Still for that read-out and setting: the result for `CO[C@@H]1[C@@H](OC)[C@H](Cc2ccccc2)O[C@@H]2COC(=O)CCCCCCCCC=CCCCCCCCCC(=O)O[C@@H]12` [KPE00001031E] reads greater than 400 mg/L.

A further data set concerns CMV AD-169 strain. Put plainly: Anti-CMV activity: plaque reduction in HEL cells, AD-169 strain. The class given is cell-based, human cytomegalovirus (CMV). The note with it: Human betaherpesvirus 5, AD169, HEL; Table 2; reduce virus plaque formation by 50%; virus input 100 PFU; read-out: IC50 CMV AD-169 Strain.
Take `CO[C@@H]1[C@@H](OC)[C@H](Cc2ccccc2)O[C@@H]2COC(=O)CC/C=C/CCC(=O)O[C@@H]12` [KPE00001022]: the IC50 is greater than 5 mg/L.
Still for that read-out and setting: the result for `CO[C@@H]1[C@@H](OC)[C@H](Cc2ccccc2)O[C@@H]2COC(=O)CCCCCCCCC=CCCCCCCCCC(=O)O[C@@H]12` [KPE00001031E] reads greater than 5 mg/L.

The next data set concerns murine leukemia cells (L1210/0). In words: Cytostatic activity: inhibition of proliferation of L1210/0 cells. Type of data set: cell-based. The note with it: Mus musculus, L1210/0, read-out: IC50 L1210/0. How it is done:
(§1) The compounds were tested for anti-tumor activity via the inhibitory effects on the proliferation of murine leukemia cells (L1210/0), murine mammary carcinoma cells (FM3A), human T-lymphocyte cells (Molt4/C8, CEM/0) and human cervix carcinoma cells (HeLa).
Regarding `CO[C@@H]1[C@@H](OC)[C@H](Cc2ccccc2)O[C@@H]2COC(=O)CC/C=C/CCC(=O)O[C@@H]12` [KPE00001022], the IC50 was determined as 80 mg/L (≈ 191 µM).

The data set is the same for the next values; noted with them: Mus musculus, L1210/0; 50% inhibitory concentration, cell proliferation; read-out: IC50 L1210/0.
Regarding `CO[C@@H]1[C@@H](OC)[C@H](Cc2ccccc2)O[C@@H]2CO[C@@H](c3ccccc3)O[C@@H]12` [KPE00001019], the IC50 was greater than 200 mg/L.
`CO[C@@H]1[C@@H](OC)[C@H](Cc2ccccc2)O[C@@H]2COC(=O)CCCCCCCCC=CCCCCCCCCC(=O)O[C@@H]12` [KPE00001031E]: the IC50 is greater than 200 mg/L.

The next data set relates to human T-lymphocyte cells (CEM/0). Put plainly: Cytostatic activity: inhibition of proliferation of CEM/0 cells. The class given is cell-based. The note with it: CCRF-CEM, 50% inhibitory concentration, cell proliferation, read-out: IC50 CEM/0. As to the method: as §1
As to `CO[C@@H]1[C@@H](OC)[C@H](Cc2ccccc2)O[C@@H]2CO[C@@H](c3ccccc3)O[C@@H]12` [KPE00001019], the IC50 is no less than 200 mg/L.
Still for that read-out and setting: the figure for `CO[C@@H]1[C@@H](OC)[C@H](Cc2ccccc2)O[C@@H]2COC(=O)CCCCCCCCC=CCCCCCCCCC(=O)O[C@@H]12` [KPE00001031E] is no less than 200 mg/L.

The same data set, now with this note: CCRF-CEM, read-out: IC50 CEM/0.
Regarding `CO[C@@H]1[C@@H](OC)[C@H](Cc2ccccc2)O[C@@H]2COC(=O)CC/C=C/CCC(=O)O[C@@H]12` [KPE00001022], the IC50 came out at 48 ± 15 mg/L (≈ 115 µM).

For the next data set, the system named is Candida albicans IHEM 10284 - ATCC 24433. In words: Anti-fungal activity, Bioscreen C growth curve: Candida albicans (yeast). Type of data set: cell-based. The note with it: Candida albicans, ATCC24433; 25 PPM; 35° C., 24 hours; negative control = 100; read-out: % of growth at a dose of 25 PPM compared to the negative control, Candida albicans IHEM 10284 - ATCC 24433. As to the method: (§2) For the determination of the anti-bacterial and anti-fungal activity the Bioscreen C Analyser Labsystems, Finland, was used. This is an automated reader-incubator. It measures growth continuously by vertical photometry (optical density), processes the data and provides a print out of the results. The area under the growth curve is automatically determined via the Biolink software.
The inoculum size of the yeast is standardized to 0.5-2.5×10^3 CFU/ml.
(§3) For bacteria, the 100-honey-well plates containing test chemical, Mueller-Hinton broth and inoculum (=sample) are incubated at 35° C. for 16 hours. Also wells without inoculum are incubated (=blanco). Yeasts are incubated 35° C. for 24 hours in RPMI 1640+MOPS buffer at 165 mM. Moulds also in RPMI 1640+MOPS buffer at 165 mM are incubated 25° C. for 5 days. All micro-organisms are screened against a known concentration of the reference antibiotics or antimycotics such as vancomycin, penicillin G, gentamicin or amphotericin B. The growth curve and the area under the growth curve can be determined using the Biolink software; this is illustrated in FIG. 1.
(§4) The area of the blanco is subtracted from the area of the sample, this number (delta) gives us an indication of the biological activity of the molecules tested and can be expressed as a % of growth at a specific dose compared to a negative control that has a value of 100, illustrated in FIG. 2. Screening of each dose of a specific compound is repeated 5 times. The dose used for all new molecules in all tests is 25 PPM or 25 μg/ml.
(§5) In Table 5 the anti-fungal activity is given for the new molecules. The micro-organisms used were Candida albicans (a typical yeast) and Microsporum gypseum (a typical mold).
(§6) Also for the determination of the anti-fungal activity the Bioscreen C Analyser Labsystems Oy, Finland was used. It measures growth continuously by vertical photometry (optical density), processes the data and provides a print out of the results. The area under the growth curve is automatically determined via the Biolink software.
(§7) The inoculum size of the yeast is standardized to 0.5-2.5×10^3 CFU/ml. The inoculum size of the mould is standardized to 0.4-5.0×10^4 CFU/ml. Yeasts are incubated 35° C. for 24 hours in RPMI 1640+MOPS buffer at 165 mM. Moulds also in RPMI 1640+MOPS buffer at 165 mM are incubated 25° C. for 5 days.
(§8) As a control, all micro-organisms are screened against some reference antibiotics with known MIC. Screening of each dose of a specific compound is repeated 5 times.
For `CO[C@@H]1[C@@H](OC)[C@H](Cc2ccccc2)O[C@@H]2CO[C@@H](c3ccccc3)O[C@@H]12` [KPE00001019], the activity at 25 ppm was 98.5%.
As for `CO[C@@H]1[C@@H](OC)[C@H](Cc2ccccc2)O[C@@H]2COC(=O)CC/C=C/CCC(=O)O[C@@H]12` [KPE00001022], the activity at 25 ppm stood at 91.5%.
Still for that read-out and setting: the result for `CO[C@@H]1[C@@H](OC)[C@H](Cc2ccccc2)O[C@@H]2COC(=O)CCCCCCCCC=CCCCCCCCCC(=O)O[C@@H]12` [KPE00001031E] reads 88.3%.

A further data set has as its system Microsporum gypseum IHEM 3999 - ATCC 14683. Put plainly: Anti-fungal activity, Bioscreen C growth curve: Microsporum gypseum (mold). The class given is cell-based. The following applies: Nannizzia gypsea, ATCC14683, 120 h; 25 PPM; 25° C., 5 days; negative control = 100; read-out: % of growth at a dose of 25 PPM compared to the negative control, Microsporum gypseum IHEM 3999 - ATCC 14683. As to the method:
as §2
The inoculum size of the mould is standardized to 0.4-5.0×10^4 CFU/ml.
as §3, §4, §5, §6, §7, §8
`CO[C@@H]1[C@@H](OC)[C@H](Cc2ccccc2)O[C@@H]2CO[C@@H](c3ccccc3)O[C@@H]12` [KPE00001019]: the activity at 25 ppm came to 66%.
Consider `CO[C@@H]1[C@@H](OC)[C@H](Cc2ccccc2)O[C@@H]2COC(=O)CC/C=C/CCC(=O)O[C@@H]12` [KPE00001022], for which the activity at 25 ppm amounted to 67%.
Turning to `CO[C@@H]1[C@@H](OC)[C@H](Cc2ccccc2)O[C@@H]2COC(=O)CCCCCCCCC=CCCCCCCCCC(=O)O[C@@H]12` [KPE00001031E], the activity at 25 ppm amounted to 62%.

The test system of a further data set is HEL cells. Put plainly: Cytotoxicity: alteration of cell morphology (MCC). The class given is cell-based, human. The note with it: minimum cytotoxic concentration that causes a microscopically detectable alteration of cell morphology.
Consider `CO[C@@H]1[C@@H](OC)[C@H](Cc2ccccc2)O[C@@H]2CO[C@@H](c3ccccc3)O[C@@H]12` [KPE00001019], for which the “Cytotoxicity Cell morphology (MCC)” value came out at 20 μg/ml.

Tested on in the next data set: not listed separately
In words: Cytotoxicity: inhibition of HEL cell growth (CC50). The class given is cell-based. The following applies: human; concentration required to reduce cell growth by 50%; HEL cells, three days. How it is done: The medium was then replaced by MEM containing various concentrations of the test compound. After three days incubation at 37° C., when the cell monolayer was 70% confluent, the cell number was determined with the Coulter counter. The minimum cytotoxic concentration was defined as the concentration required to reduce cell growth by 50%.
Take `CO[C@@H]1[C@@H](OC)[C@H](Cc2ccccc2)O[C@@H]2CO[C@@H](c3ccccc3)O[C@@H]12` [KPE00001019]: the CC50 at 3 days is greater than 50 mg/L.

A further data set relates to L1210/0, FM3A, Molt4/C8, CEM/0 and HeLa cells. In words: Cytostatic studies, conclusion over the panel of cell lines. Type of data set: cell-based, murine and human. The note with it: conclusion in text on Table 3. How it is done:
as §1
As for `CO[C@@H]1[C@@H](OC)[C@H](Cc2ccccc2)O[C@@H]2COC(=O)CC/C=C/CCC(=O)O[C@@H]12` [KPE00001022], the “cytostatic activity, in words” value is given as “good cytostatic activity”.

Tested on in a further data set: not given
Test: not given
Settings: not given
Compound `CO[C@@H]1[C@@H](OC)[C@H](Cc2ccccc2)O[C@@H]2COC(=O)CCCCCCCCC=CCCCCCCCCC(=O)O[C@@H]12` [KPE00001031E] returned a melting point of 45 to 46 °C.

One may read the EC50 as the concentration needed to bring the measured effect to its halfway point. The CC50 is the concentration giving 50% cytotoxicity. Lower therefore signals greater toxicity to the cells. Broadly, the melting point is the temperature of the solid-liquid transition.
